In patent US20190210969A1, “INTRAESOPHAGEAL ADMINISTRATION OF TARGETED NITROXIDE AGENTS FOR PROTECTION AGAINST IONIZING IRRADIATION-INDUCED ESOPHAGITIS” (University of Pittsburgh - Of the Commonwealth System of …, priority 2010, published 2019):

Key:
Type in all cases: in vivo, mouse
[1] = tested on: mice, 29 Gy upper body irradiation plus GFP+ male marrow; test: Survival after 29 Gy upper body irradiation with GFP+ marrow injection on day 5; settings: given before 29 Gy; GFP+ marrow i.v. day 5; p=0.0315 (MnSOD-PL), p=0.0462 (JP4-039/F15)
From the text: (§1) Bone marrow transplantation, esophageal excision and cell sorting. Five days after irradiation, the time shown to optimize marrow cell homing to the irradiated esophagus, mice received intravenous injection of 1.0×10^7 C57BL/6HNsd GFP+ male bone marrow cells prepared as single-cell suspension from donor male mice according to published methods (Niu Y, et al. Irradiated esophageal cells are protected from radiation-induced recombination by MnSOD gene therapy. Rad Res 173: 453-461, 2010 and Niu Y, et al. Intraesophageal MnSOD-plasmid liposome administration enhances engraftment and self-renewal capacity of bone marrow derived progenitors of esophageal squamous epithelium. Gene Therapy 15: 347-356, 2008). At serial time points after marrow transplantation, esophagus specimens were removed, and single cell suspensions prepared according to published methods (Id.). The esophagus cell suspensions were sorted for GFP+ cells. The number of GFP+ cells per 10^6 was calculated as described previously (Id.). (GFP+) cells were placed on slides, and stained for detection of donor cell markers (Id.).
Intraesophageal JP4-039/formulation improves survival through recovery of endogenous esophageal progenitor cells. […] Five groups of 15 mice each received 29 Gy to the upper body. One group received MnSOD-PL 24 hours prior to irradiation.

[2] = tested on: GFP+ cells in the esophagus; test: GFP+ marrow-derived cells in the irradiated esophagus (cell sorting)
From the text: FIGS. 18A-F. Detection of GFP+ marrow-derived cells in the irradiated mouse esophagus after intravenous transplant. Mice were irradiated to 29 Gy to the esophagus on day 0, and then injected with 1×10^7 GFP+ marrow cells intravenously on day 5 according to published methods (Epperly M W, et al. Int J Cancer (Radiat Oncol Invest) 96: 221-233, 2001; Epperly M W, et al. In Vivo 19: 997-1004, 2005; and Epperly M W, et al. Protection of esophageal stem cells from ionizing irradiation by MnSOD-plasmid liposome gene therapy. In Vivo 19: 965-974, 2005). Five esophagus samples were removed from each animal in the various subgroups on days 1 (FIG. 18A), 3 (FIG. 18B), 7 (FIG. 18C), 14 (FIG. 18D), 28 (FIG. 18E) and 60 (FIG. 18F) after marrow injection. Samples of excised esophagi were prepared as single cell suspensions and then analyzed by cell […] for GFP+ cells/106 esophagus cells. Each symbol represents one esophagus.
as §1
Statistics. In vitro data analysis and estimation of survival of mice were performed using published statistical methods (Epperly M W, et al. Radiat Res 155: 2-14, 2001). The Kruskal-Wallis test and post-hoc Mann-Whitney test were used to evaluate donor marrow cells in the esophagus as described (Niu Y, et al. Rad Res 173: 453-461, 2010). A SAS statistical program was used to perform the statistical analysis (SAS Institute, Cary, N.C., USA).

[3] = tested on: Lewis lung carcinoma cells (3LL); test: Irradiation of mice with orthotopic 3LL lung tumors
From the text: A separate group of mice received intratracheal administration of 1×10^6 Lewis lung carcinoma cells (3LL) seven days prior to administration of JP4-039, followed immediately by excision of lung tissue to calculate JP4-039 uptake by cancer cells.
This dose of irradiation was chosen to reduce tumor growth but was below the level required for lethal esophagitis. […] Control tumor-bearing mice received no irradiation.

CC(C)C[C@@H](/C=C/CC(=O)NC1CC(C)(C)N([O])C(C)(C)C1)NC(=O)OC(C)(C)C [JP4-039, TEMPO-4-yl-(S,E)-5-(tert-butoxycarbonylamino)-7-methyloct-3-enamide]
survival [1]: improved survival | number of GFP+ cells per 10^6 cells in the esophagus, median (inter-quartile range) ([2]; 29 Gy + JP4-039 (after irradiation), day 1): 0.5 (0-1.6) per 10^6 cells | number of GFP+ cells per 10^6 cells in the esophagus, median (inter-quartile range) ([2]; 29 Gy + JP4-039 (after irradiation), day 3): 1.5 (0.5-1.7) per 10^6 cells | number of GFP+ cells per 10^6 cells in the esophagus, median (inter-quartile range) ([2]; 29 Gy + JP4-039 (after irradiation), day 7): 0 (0-0.3) per 10^6 cells | number of GFP+ cells per 10^6 cells in the esophagus, median (inter-quartile range) ([2]; 29 Gy + JP4-039 (after irradiation), day 28): 0.85 (0-4.15) per 10^6 cells | number of GFP+ cells per 10^6 cells in the esophagus, median (inter-quartile range) ([2]; JP4-039 + 29 Gy (before irradiation), day 1): 0.9 (0.3-2.6) per 10^6 cells | number of GFP+ cells per 10^6 cells in the esophagus, median (inter-quartile range) ([2]; JP4-039 + 29 Gy (before irradiation), day 3): 0.3 (0-3.1) per 10^6 cells | number of GFP+ cells per 10^6 cells in the esophagus, median (inter-quartile range) ([2]; JP4-039 + 29 Gy (before irradiation), day 7): 0.28 (0.13-0.65) per 10^6 cells | number of GFP+ cells per 10^6 cells in the esophagus, median (inter-quartile range) ([2]; JP4-039 + 29 Gy (before irradiation), day 28): 0 (0-0) per 10^6 cells | number of GFP+ cells per 10^6 cells in the esophagus, median (inter-quartile range) ([2]; JP4-039 + 29 Gy (before irradiation), day 60): 0 (0-0) per 10^6 cells | protection of orthotopic 3LL cells from irradiation ([3]; 4 μg in 110 μl F15, 10 minutes before 0 or 15 Gy upper-body irradiation): did not protect 3LL cells from irradiation | survival of 3LL tumor-bearing mice compared to F15 alone ([3]; prior to 20 Gy thoracic irradiation, p=0.3693): did not survive significantly differently
